Values quoted from earlier work in patent US20090236541A1, “System and Methods for Optical Imaging” (General Electric Company, priority 2008, published 2009).

Key:
[1] = test system: mitochondria and/or the endoplasmic reticulum; conditions: concentration-dependent manner
[2] = test system: heart of a living laboratory rat; conditions: living laboratory rat after a thoracotomy
[3] = small molecule form

SMILES	partitioning into mitochondria and/or endoplasmic reticulum [1]	imaging of blood flow in the heart [2]	solubility in blood [3]
CN1C(=CC=C2CCCC(C=CC3=[N+](C)c4ccccc4C3(C)C)=C2Cl)C(C)(C)c2ccccc21.[O-][Cl+3]([O-])([O-])[O-] [IR-786]	partitions efficiently into mitochondria and/or the endoplasmic reticulum	successfully applied	
CC1(C)C(/C=C/C=C/C=C/C=C2\N(CCCCS(=O)(=O)O)c3ccc4ccccc4c3C2(C)C)=[N+](CCCCS(=O)(=O)[O-])c2ccc3ccccc3c21 [Indocyanine green, indocyanine green]			somewhat less soluble in blood
